{"source": "patent US12496329B2", "about": "“Methods of using and compositions including an incretin analog” (Eli Lilly and Company, priority 2021, dated 2025)", "experiment": "MAD study in individuals with diabetes: pharmacodynamics (OGTT, glucose, HbA1c, body weight, appetite VAS)", "type": "in vivo, human", "design": "OGIS Index, change from baseline / Disposition Index, change from baseline: unit not given here", "details": "for Disposition Index, change from baseline / HOMA2-B, change from baseline / HOMA2-IR, change from baseline / Insulin Sensitivity Matsuda Index, change from baseline / Insulinogenic Index, change from baseline / OGIS Index, change from baseline / OGTT C-peptide AUC (0-2 hr), change from baseline / OGTT GCG AUC (0-2 hr), change from baseline / OGTT glucose AUC (0-2 hr), change from baseline / OGTT insulin AUC (0-2 hr), change from baseline / Daily mean plasma glucose, change from baseline / HbA1c, change from baseline: 1.5 mg Dula", "from_the_text": "Studies are designed to evaluate the safety, tolerability, PD and PK of the GGG tri-receptor agonist (SEQ ID NO:1) in individuals with diabetes. The MAD study is a randomized, investigator- and participant-blind, placebo-controlled, multiple-ascending dose, single-site study conducted in individuals with diabetes (i.e., females or males aged 20-70 years, inclusive, with T2DM for at least 3 months and HbA1c at lead-in and screening of ≥7.0% and ≤10.5% and treated with diet and exercise alone or a stable dose of metformin for at least 3 months prior to screening, with stable body weight for 3 months prior to randomization and with a BMI of 23-50 kg/m^2 at screening).\nDose escalation of the GGG tri-receptor agonist is assessed over 12 weeks in cohorts with a starting dose of 0.5 mg. One cohort of 13 individuals is administered 0.5 mg for 12 weeks. A second cohort of 13 individuals is administered 1.5 mg for 12 weeks. A third cohort of 15 individuals is administered 3.0 mg for 12 weeks. A fourth cohort of 15 individuals is administered 3.0 mg for 4 weeks and then administered 6.0 mg for 8 weeks. A fifth cohort of 16 individuals is administered 3.0 mg for 2 weeks, administered 6.0 mg for 2 weeks, administered 9.0 mg for 4 weeks, and then administered 12 mg for 4 weeks. Alternate dose increment steps may be introduced based on emerging safety and tolerability data from the preceding cohorts, and the dose increment steps can be reduced. As a non-limiting example, in Cohort 4, escalation from starting dose of 3 mg may occur via a step-through dose of 4.5 mg before attaining 6 mg, in Cohort 5, escalation from starting dose of 3 to 12 mg may occur via an additional step through dose level of 4.5 mg, prior to the planned doses 6 and 9 mg. In addition to these proposed alternate regimens in Cohort 4 and Cohort 5, planned dose for escalation between cohorts and within cohorts may be further reduced if warranted by safety or tolerability data.\nC-peptide, glucagon, glucose and insulin are measured for an oral glucose tolerance test (OGTT) during the study using methods known in the art for each of the analytes. In addition, HbA1c is measured at Days 1, 29, 57, 78 and 85, as well as at Week 16. The following parameters are derived from the OGTT to assess insulin resistance and β cell function: Homeostatic model assessment (HOMA)-B, HOMA-IR, insulinogenic index, insulin sensitivity (Matsuda Index) and oral glucose insulin sensitivity (OGIS).\nInsulin sensitivity is calculated as per the below equation: […]\nInsulin sensitivity (Matsuda Index) is calculated as per the below equation: […]\nDisposition index is calculated as (IGI*ISI).\nOGIS is calculated as per the below equation: […]\nSatiety VAS is measured after fasting on Days 1, 8, 15, 22, 29, 36, 43, 50, 57, 64, 71, 78 and 80, as well as at Week 16. Appetite sensations are assessed using a VAS for parameters of hunger, fullness, satiety and prospective food intake, and an overall appetite score is calculated as described above in the SAD study.", "key": {"[1]": {"details": "1.5 mg dulaglutide, 12-week treatment"}}, "note": "Marks after values point to notes of the source that are not given here."}
{"substance": "dulaglutide", "values": [{"measurement": "Disposition Index, change from baseline", "setting": "Day 2", "result": 0.0812}, {"measurement": "HOMA2-B, change from baseline", "setting": "Day 2", "result": 31.2}, {"measurement": "HOMA2-IR, change from baseline", "setting": "Day 2", "result": 0.360}, {"measurement": "Insulin Sensitivity Matsuda Index, change from baseline", "setting": "Day 2", "result": "−0.0208"}, {"measurement": "Insulinogenic Index, change from baseline", "setting": "Day 2", "result": 0.119}, {"measurement": "OGIS Index, change from baseline", "setting": "Day 2", "result": 23.5}, {"measurement": "OGTT C-peptide AUC (0-2 hr), change from baseline", "setting": "Day 2", "result": 879, "unit": "pmol·h/L"}, {"measurement": "OGTT GCG AUC (0-2 hr), change from baseline", "setting": "Day 2", "result": -1.21, "unit": "pmol·h/L"}, {"measurement": "OGTT glucose AUC (0-2 hr), change from baseline", "setting": "Day 2", "result": -9.10, "unit": "mmol·h/L"}, {"measurement": "OGTT insulin AUC (0-2 hr), change from baseline", "setting": "Day 2", "result": 322, "unit": "pmol·h/L"}, {"measurement": "Daily mean plasma glucose, change from baseline", "setting": "Day 3", "result": "−2.60* mmol/L"}, {"measurement": "HbA1c, change from baseline", "setting": "Day 29", "result": "−0.646", "unit": "%"}, {"measurement": "Disposition Index, change from baseline", "setting": "Day 30", "result": 0.0866}, {"measurement": "HOMA2-B, change from baseline", "setting": "Day 30", "result": 42.2}, {"measurement": "HOMA2-IR, change from baseline", "setting": "Day 30", "result": 0.480}, {"measurement": "Insulin Sensitivity Matsuda Index, change from baseline", "setting": "Day 30", "result": "−0.476"}, {"measurement": "Insulinogenic Index, change from baseline", "setting": "Day 30", "result": 0.130}, {"measurement": "OGIS Index, change from baseline", "setting": "Day 30", "result": 19.4}, {"measurement": "OGTT C-peptide AUC (0-2 hr), change from baseline", "setting": "Day 30", "result": 1350, "unit": "pmol·h/L"}, {"measurement": "OGTT GCG AUC (0-2 hr), change from baseline", "setting": "Day 30", "result": -4.52, "unit": "pmol·h/L"}, {"measurement": "OGTT glucose AUC (0-2 hr), change from baseline", "setting": "Day 30", "result": -10.6, "unit": "mmol·h/L"}, {"measurement": "OGTT insulin AUC (0-2 hr), change from baseline", "setting": "Day 30", "result": 519, "unit": "pmol·h/L"}, {"measurement": "Daily mean plasma glucose, change from baseline", "setting": "Day 31", "result": "−3.89* mmol/L"}, {"measurement": "HbA1c, change from baseline", "setting": "Day 57", "result": "−0.997", "unit": "%"}, {"measurement": "Daily mean plasma glucose, change from baseline", "setting": "Day 59", "result": "−3.21* mmol/L"}, {"measurement": "HbA1c, change from baseline", "setting": "Day 78", "result": "−1.07", "unit": "%"}, {"measurement": "Disposition Index, change from baseline", "setting": "Day 79", "result": 0.0481}, {"measurement": "HOMA2-B, change from baseline", "setting": "Day 79", "result": 25.9}, {"measurement": "HOMA2-IR, change from baseline", "setting": "Day 79", "result": 0.600}, {"measurement": "Insulin Sensitivity Matsuda Index, change from baseline", "setting": "Day 79", "result": "−1.14"}, {"measurement": "Insulinogenic Index, change from baseline", "setting": "Day 79", "result": 0.105}, {"measurement": "OGIS Index, change from baseline", "setting": "Day 79", "result": 38.1}, {"measurement": "OGTT C-peptide AUC (0-2 hr), change from baseline", "setting": "Day 79", "result": 354, "unit": "pmol·h/L"}, {"measurement": "OGTT GCG AUC (0-2 hr), change from baseline", "setting": "Day 79", "result": -1.28, "unit": "pmol·h/L"}, {"measurement": "OGTT glucose AUC (0-2 hr), change from baseline", "setting": "Day 79", "result": -8.44, "unit": "mmol·h/L"}, {"measurement": "OGTT insulin AUC (0-2 hr), change from baseline", "setting": "Day 79", "result": 188, "unit": "pmol·h/L"}, {"measurement": "Daily mean plasma glucose, change from baseline", "setting": "Day 80", "result": "−3.73* mmol/L"}, {"measurement": "HbA1c, change from baseline", "setting": "Day 85", "result": "−0.960", "unit": "%"}, {"measurement": "HbA1c, change from baseline", "setting": "Day 106", "result": "−0.538", "unit": "%"}, {"measurement": "fullness scores", "setting": "[1]", "result": "increase from baseline"}, {"measurement": "hunger scores", "setting": "[1]", "result": "decrease from baseline"}, {"measurement": "prospective food consumption scores", "setting": "[1]", "result": "greatest decreases from baseline"}, {"measurement": "satiety scores", "setting": "[1]", "result": "increase from baseline"}, {"measurement": "maximum decrease from baseline in mean body weight", "setting": "1.5 mg, 12-weeks treatment", "result": 1.3, "unit": "kg"}, {"measurement": "decrease from baseline in mean waist circumference", "setting": "1.5 mg, Day 85", "result": 4.9, "unit": "cm"}]}
